Measurements reported in patent publication US20250205158A1, “BIODEGRADABLE LIPIDS AND FORMULATIONS FOR DELIVERY OF MRNA” (Massachusetts Institute of Technology, priority 2023, published 2025).
Values joined by “and” are separate entries in the source; they are usually repeats but may differ in a detail not shown here. Equal entries are not always repeated. Where two headings read alike, the source gives them in different places.

Columns and labels:
mice = details: for protein expression relative to MD-1: in vitro and in vivo via intramuscular administration (FIGS. 6A-6B)
Experimental: Evaluation of the LNPs via intramuscular injection. The in vivo potency of the ionizable lipids was screened through intramuscular injection of LNPs loaded with mRNA encoding firefly luciferase protein. These LNPs were formulated with a molar composition of (35:16:46.5:2.5) using one of the synthesized ionizable lipids, DOPE as a helper lipid, cholesterol, and DMPE-PEG respectively. mRNA-loaded LNPs were intramuscularly administered in mice at a dose of 1 μg, and expression of luciferase protein was monitored at 6 hours via IVIS bioluminescent imaging (FIG. 3). […] Without wishing to be bound by theory, increased levels of protein expression may enhance the response to vaccination.
In Vitro and In Vivo Screening of AMG Lipid Library. Following synthesis, the mRNA delivery efficacy of the AMG lipids was evaluated through both in vitro and in vivo screens. To screen the first generation of AMG lipids (FIGS. 11B and 11C), firefly luciferase (FLuc) mRNA was encapsulated into LNPs using a previously reported formulation containing ionizable lipid, 1,2-dioleoyl-sn-glycero-3-phosphoethanolamine (DOPE), cholesterol, and 1,2-dimyristoyl-rac-glycero-3-methoxypolyethylene glycol-2000 (DMG-PEG).^19 C2C12 myoblast cells were treated with these LNPs and FLuc expression was evaluated at 24 hrs. (FIG. 16). […] Each of these batches was then injected IM into the quadriceps of mice, and expression was characterized via IVIS imaging (Screen 1, FIG. 11E).
AMG lipids for enhanced mRNA delivery and improved tolerability. A rational design approach was used to further vary the ionizable lipid structure to enhance the mRNA delivery and immunogenicity. […] The lipid tail structure was varied to promote efficient LNP self-assembly while simultaneously promoting endosomal membrane disruption.^18 Monounsaturated (G41-G44) or fully saturated (GC12-GC18) lipid tails were developed. […] Without wishing to be bound by any particular theory, tail length may impact membrane fusion and endosomal escape.^10,11
Next, the headgroup was further modified to further improve delivery. Headgroups play a multifunctional role including enhancing LNP-mRNA interactions, promoting membrane-LNP fusion and endosomal escape which all contribute to mRNA delivery.^23 A series of similar aza-crown ethers were used to further investigate structure-activity relationship and enhance mRNA delivery. These headgroups featured between three and eight nitrogens linked by varying length of methylene chains. Each of these headgroups were reacted with tail G41 to synthesize a next generation of AMG lipids, which were then formulated with FLuc mRNA and evaluated for mRNA delivery following IM administration in mice (FIG. 12B).

[1] = LNP characterization (diameter, PDI, % EE); format: physicochemical; details: LNP formulated with the named lipid; for EE %: Ribogreen assay; for Diameter (nm) / PDI: dynamic light scattering
Experimental: Representative LNP Characterization Data. The diameter, polydispersity index (PDI), and % EE were characterized for various LNPs.
LNP characterization. Concentration of mRNA was determined using a Quant-IT Ribogreen assay. LNPs were diluted in either native TE buffer (ThermoFisher) or denaturing TE buffer+0.5% Triton-X 100 (Millipore-Sigma) to measure the “free” and total mRNA, respectively. 100 μL of these unknowns were added to a black 96-well plate. Separately, standard curves ranging from 2 ng/μL-0 ng/μL were prepared in each of these buffers and 100 μL were added to the same 96-well plate. Finally, Quant-IT Ribogreen reagent (ThermoFisher) was diluted 1:200 in TE buffer and 100 μL of this solution was added to each of the wells. The well plate was then mixed at 400 rpm with a plate shaker for 5 mins. and the fluorescence was read with an excitation/emission of 485/535. LNPs were measured in triplicate and standards were measured in duplicate. RNA concentration in each of the unknown wells was calculated by fitting the standard curves with a linear trendline. Encapsulation efficiency (% EE) was calculated according to: […]
Dynamic light scattering and zeta potential measurements were performed using a Malvern Zetasizer system. The reported diameter and PDI were obtained from the cumulants fit of the autocorrelation function. Zeta potential measurements were performed in 0.1×PBS, pH 7.4 and calculated using the Smoluchowski approximation.

[2] = Ethanol solubility of ionizable lipids; format: physicochemical
From the text: AMG lipids for enhanced mRNA delivery and improved tolerability.

BALB/c mice = details: spike mRNA LNPs on day 0 and day 21, serum day 35
Experimental: Briefly, 6-8 week old BALB/c mice were vaccinated with 1 g of mRNA LNPs on day 0 and on day 21, and serum was collected on day 35 to characterize the antibody response to vaccination.
Immunization studies. […] All LNPs were injected IM in the quadricep with an injection volume of 50 μL with the doses specified in the main text. All vaccination experiments followed a prime-boost dosing regimen with doses given on day 0 and day 21. On day 35, mice were sacrificed, and blood was collected via cardiac puncture and their spleens were collected for further characterization.
Binding antibody ELISAs. […] Plates were coated overnight at 4° C. by adding 100 μL of a 1 μg/mL antigen solution in 100 mM carbonate buffer, pH 9.6 to each well. The coated plates were then washed with ELISA wash buffer (Biolegend) and blocked for 1 hr. at room temperature (RT) with 150 μL of 1% BSA in PBS. The plate was then washed again, and 100 μL of serially diluted serum samples were then added to the plate and incubated at RT for 1 hr. Next, the plate was washed and the secondary goat anti-mouse IgG, HRP antibody (ThermoFisher) was diluted 1:3,000. 100 μL of this solution added to each well an incubated at RT for 1 hr. After incubation, the plate was washed and 100 μL of TMB chromogen solution (ThermoFisher) was added to each well and incubated for 30 mins. Finally, the HRP reaction was stopped by the addition of 100 μL of 0.5 M H2SO4. The absorbance of each well was immediately read at 450 nm with 600 nm as a reference using an Infinite M200 Pro (Tecan) plate reader. The resultant data were then fit with a 4-PL sigmodal curve and the endpoint titers were taken as the point at which this curve crossed four times the absorbance of the blank wells.

[3] = tissue not named

Structure (SMILES) | EE % [1] [%] | Diameter (nm) [1] [nm] | PDI [1] | protein expression relative to MD-1 (mice) | further results
CCCCCC/C=C\CCCCOC(=O)CCN1CCN(CCC(=O)OCCCC/C=C\CCCCCC)CCN(CCC(=O)OCCCC/C=C\CCCCCC)CCN(CCC(=O)OCCCC/C=C\CCCCCC)CCN(CCC(=O)OCCCC/C=C\CCCCCC)CCN(CCC(=O)OCCCC/C=C\CCCCCC)CC1 [AMG1559] | – | – | – | – | fold drop in transfection versus AMG1541 (mice; IM, analogue without β-amino alcohol): 34 fold
CCC/C=C\CCCCCCC(=O)OCC(O)CN1CCN(CC(O)COC(=O)CCCCCC/C=C\CCC)CCN(CC(O)COC(=O)CCCCCC/C=C\CCC)CCN(CC(O)COC(=O)CCCCCC/C=C\CCC)CCN(CC(O)COC(=O)CCCCCC/C=C\CCC)CCN(CC(O)COC(=O)CCCCCC/C=C\CCC)CC1 (centres unmarked) [AMG1549] | 56.9 | 100.4 | 0.234 | superseded or matched MD-1 | –
CC/C=C\C/C=C\CCCCC(=O)OCC(O)CN1CCN(CC(O)COC(=O)CCCC/C=C\C/C=C\CC)CCN(CC(O)COC(=O)CCCC/C=C\C/C=C\CC)CCN(CC(O)COC(=O)CCCC/C=C\C/C=C\CC)CCN(CC(O)COC(=O)CCCC/C=C\C/C=C\CC)CCN(CC(O)COC(=O)CCCC/C=C\C/C=C\CC)CC1 (centres unmarked) [AMG1555] | 88.37 | 83 | 0.077 | superseded or matched MD-1 | –
CCC/C=C\C/C=C\CCCC(=O)OCC(O)CN1CCN(CC(O)COC(=O)CCC/C=C\C/C=C\CCC)CCN(CC(O)COC(=O)CCC/C=C\C/C=C\CCC)CCN(CC(O)COC(=O)CCC/C=C\C/C=C\CCC)CCN(CC(O)COC(=O)CCC/C=C\C/C=C\CCC)CCN(CC(O)COC(=O)CCC/C=C\C/C=C\CCC)CC1 (centres unmarked) [AMG1554] | 91.711 | 105 | 0.1 | superseded or matched MD-1 | –
CCCCCCCCC=CCCCCCCCC(=O)OCC(O)CN1CCCN(CC(O)COC(=O)CCCCCCCC=CCCCCCCCC)CCN(CC(O)COC(=O)CCCCCCCC=CCCCCCCCC)CCCN(CC(O)COC(=O)CCCCCCCC=CCCCCCCCC)CC1 (mixture of isomers) [AMG104] | – | – | – | – | fold higher mRNA expression than the next best lipid AMG1010 (mice; Screen 3, IM, 1 μg, imaged 24 hours post injection): ~5 fold
CCCCCC/C=C\CCCCCCCC(=O)OCC(O)CN1CCCN(CC(O)COC(=O)CCCCCCC/C=C\CCCCCC)CCN(CC(O)COC(=O)CCCCCCC/C=C\CCCCCC)CCCN(CC(O)COC(=O)CCCCCCC/C=C\CCCCCC)CC1 (centres unmarked) [AMG1043] | – | 79.27 | 0.169 | – | –
CCCCC/C=C\CCCCC(=O)OCC(O)CN1CCN(CC(O)COC(=O)CCCC/C=C\CCCCC)CCN(CC(O)COC(=O)CCCC/C=C\CCCCC)CCN(CC(O)COC(=O)CCCC/C=C\CCCCC)CCN(CC(O)COC(=O)CCCC/C=C\CCCCC)CCN(CC(O)COC(=O)CCCC/C=C\CCCCC)CC1 (centres unmarked) [AMG1547] | 85.33 | 100 | 0.142 | superseded or matched MD-1 | –
CCCCCCCCCCCCCCCCCC(=O)OCC(O)CN1CCCN(CC(O)COC(=O)CCCCCCCCCCCCCCCCC)CCN(CC(O)COC(=O)CCCCCCCCCCCCCCCCC)CCCN(CC(O)COC(=O)CCCCCCCCCCCCCCCCC)CC1 (mixture of isomers) [AMG10C18] | – | – | – | – | ethanol solubility [2]: poor ethanol solubility
CCCC/C=C\C/C=C\CCC(=O)OCC(O)CN1CCN(CC(O)COC(=O)CC/C=C\C/C=C\CCCC)CCN(CC(O)COC(=O)CC/C=C\C/C=C\CCCC)CCN(CC(O)COC(=O)CC/C=C\C/C=C\CCCC)CCN(CC(O)COC(=O)CC/C=C\C/C=C\CCCC)CCN(CC(O)COC(=O)CC/C=C\C/C=C\CCCC)CC1 (centres unmarked) [AMG1553] | 89.0186 | 94 | 0.09 | superseded or matched MD-1 | –
CCCCCCCCCCCCCCCC(=O)OCC(O)CN1CCCN(CC(O)COC(=O)CCCCCCCCCCCCCCC)CCN(CC(O)COC(=O)CCCCCCCCCCCCCCC)CCCN(CC(O)COC(=O)CCCCCCCCCCCCCCC)CC1 (mixture of isomers) [AMG10C16] | – | – | – | – | ethanol solubility [2]: poor ethanol solubility
CCCCCC/C=C\CCCC(=O)OCC(O)CN1CCN(CC(O)COC(=O)CCC/C=C\CCCCCC)CCN(CC(O)COC(=O)CCC/C=C\CCCCCC)CCN(CC(O)COC(=O)CCC/C=C\CCCCCC)CCN(CC(O)COC(=O)CCC/C=C\CCCCCC)CCN(CC(O)COC(=O)CCC/C=C\CCCCCC)CCN(CC(O)COC(=O)CCC/C=C\CCCCCC)CC1 (centres unmarked) [AMG1741] | 82.99 | 88 | 0.156 | – | antibody titers after vaccination (BALB/c mice): high levels of antibody titers
C/C=C\CCCCCCCCC(=O)OCC(O)CN1CCN(CC(O)COC(=O)CCCCCCCC/C=C\C)CCN(CC(O)COC(=O)CCCCCCCC/C=C\C)CCN(CC(O)COC(=O)CCCCCCCC/C=C\C)CCN(CC(O)COC(=O)CCCCCCCC/C=C\C)CCN(CC(O)COC(=O)CCCCCCCC/C=C\C)CC1 (centres unmarked) [AMG1551] | 67.41 | 77 | 0.145 | – | in vivo mRNA delivery of alkene walking tail derivatives (mice; IM, 0.1 μg, 6 hours): loss in potency
CC/C=C\CCCCCCCC(=O)OCC(O)CN1CCN(CC(O)COC(=O)CCCCCCC/C=C\CC)CCN(CC(O)COC(=O)CCCCCCC/C=C\CC)CCN(CC(O)COC(=O)CCCCCCC/C=C\CC)CCN(CC(O)COC(=O)CCCCCCC/C=C\CC)CCN(CC(O)COC(=O)CCCCCCC/C=C\CC)CC1 (centres unmarked) [AMG1550] | 78.09 | 93 | 0.119 | superseded or matched MD-1 | –
CCCC/C=C\CCCCCC(=O)OCC(O)CN1CCN(CC(O)COC(=O)CCCCC/C=C\CCCC)CCN(CC(O)COC(=O)CCCCC/C=C\CCCC)CCN(CC(O)COC(=O)CCCCC/C=C\CCCC)CCN(CC(O)COC(=O)CCCCC/C=C\CCCC)CCN(CC(O)COC(=O)CCCCC/C=C\CCCC)CC1 (centres unmarked) [AMG1548] | 54.6 | 104.7 | 0.106 | superseded or matched MD-1 | –
CCCCCC/C=C\CCCC(=O)OCC(O)CN1CCCN(CC(O)COC(=O)CCC/C=C\CCCCCC)CCN(CC(O)COC(=O)CCC/C=C\CCCCCC)CCCN(CC(O)COC(=O)CCC/C=C\CCCCCC)CC1 (centres unmarked) [AMG1041] | – | 81.79 | 0.113 | – | fold higher expression than AMG104 (mice; IM, tail derivatives, 5 μg, 24 hours): ~3 fold; [AMG1041] ng/g tissue ([3]; Time 0 hrs): 0 ng/g tissue; [AMG1041] ng/g tissue ([3]; Time 1 hrs): 32200 ng/g tissue and 24800 ng/g tissue and 28000 ng/g tissue; [AMG1041] ng/g tissue ([3]; Time 2 hrs): 14000 ng/g tissue and 23400 ng/g tissue and 20400 ng/g tissue; [AMG1041] ng/g tissue ([3]; Time 4 hrs): 17200 ng/g tissue and 12600 ng/g tissue and 9400 ng/g tissue; [AMG1041] ng/g tissue ([3]; Time 8 hrs): 4800 ng/g tissue and 8000 ng/g tissue; [AMG1041] ng/g tissue ([3]; Time 24 hrs): 600 ng/g tissue; antibody titers after vaccination (BALB/c mice): high levels of antibody titers
C/C=C\C/C=C\CCCCCC(=O)OCC(O)CN1CCN(CC(O)COC(=O)CCCCC/C=C\C/C=C\C)CCN(CC(O)COC(=O)CCCCC/C=C\C/C=C\C)CCN(CC(O)COC(=O)CCCCC/C=C\C/C=C\C)CCN(CC(O)COC(=O)CCCCC/C=C\C/C=C\C)CCN(CC(O)COC(=O)CCCCC/C=C\C/C=C\C)CC1 (centres unmarked) [AMG1556] | 85.76 | 96 | 0.121 | superseded or matched MD-1 | –
